The values below come from paper PMC4894417, “Quantitative High-Throughput Profiling of Environmental Chemicals and Drugs that Modulate Farnesoid X Receptor” (Scientific Reports, 2014).

Where two headings read alike, the source gives them in different places. Numbered stars: 1 amine (or outer) side, 2 acyl side, 3 side chain; on linkers, the order of the positions; unused ones are H or OH. Bridge positions count the residues as written; N and C are the ends. Square brackets hold non-standard residues; d marks the D form. Peptide text beside a SMILES is read from it. I, II: the chains in the order shown. Actinocin(9to1) = Cc1c2oc3c(C)ccc(C(=O)[*:1])c3nc-2c(C(=O)[*:2])c(N)c1=O; NMeV = CN[C@H](C(=O)O)C(C)C; Sar = CNCC(=O)O

By IC50 is commonly meant the concentration that inhibits the measured activity by half. As usually defined, the EC50 is the concentration needed to bring the measured effect to its halfway point.

The target in data set [1] is T1, human FXR (Homo sapiens, UniProt Q96RI1). In words: FXR-bla reporter gene assay, agonist mode (qHTS). The conditions noted are these: for FXR agonist activity: FXR-bla assay; for FXR agonist Efficacy: Table S3. A general note: A reporter such as luciferase makes a cellular process visible.
Data set [2] relates to FXR-UAS-bla HEK293T cells. Nature of the data set: Cell viability assay (CellTiter Glo) in the same well as FXR-bla.
Data set [3] deals with T1, human FXR. Nature of the data set: FXR-bla reporter gene assay, antagonist mode (CDCA-induced transactivation). The conditions noted are these: for FXR antagonist activity: FXR-bla assay.
The mark [4] stands for this setting: IC50, FXR-bla antagonist mode, primary screening, CDCA-induced.
[5] abbreviates: Table S1, primary screening, 50 µM CDCA.

T1 sequence (Q96RI1 with tags, fused parts or gaps limits assumed): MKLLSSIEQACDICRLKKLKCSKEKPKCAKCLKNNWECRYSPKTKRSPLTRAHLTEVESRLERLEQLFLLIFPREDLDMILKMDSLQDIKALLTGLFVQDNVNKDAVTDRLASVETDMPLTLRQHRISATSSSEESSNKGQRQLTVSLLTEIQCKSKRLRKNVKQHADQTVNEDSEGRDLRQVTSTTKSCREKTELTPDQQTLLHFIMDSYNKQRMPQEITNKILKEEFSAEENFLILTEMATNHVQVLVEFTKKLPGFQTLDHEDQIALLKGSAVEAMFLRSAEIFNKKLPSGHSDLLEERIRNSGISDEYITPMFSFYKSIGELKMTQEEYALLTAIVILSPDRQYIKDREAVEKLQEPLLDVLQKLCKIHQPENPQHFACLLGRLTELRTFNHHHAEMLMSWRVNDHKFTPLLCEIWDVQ

`Cc1c(COC(=O)[C@@H]2[C@H](/C=C(\Cl)C(F)(F)F)C2(C)C)cccc1-c1ccccc1` (racemic) [Bifenthrin]: the “FXR agonist mode EC50” value at human FXR [1] (Table S1, primary screening) was “Inactive”. Besides, the “Cytotoxicity IC50” value in data set [2] (Table S1, primary screening) is “Inactive”. The “FXR antagonist mode Efficacy” value at human FXR [3] stood at 50 ± 16. The compound further had an IC50 against human FXR [3] (FXR antagonist mode IC50) of 11.3 ± 4.58 µM. Also, the “FXR antagonist activity” value on human FXR [3] (CDCA-induced) is listed as “highly selective FXR antagonists”.
Turning to `Cc1c(F)c(F)c(COC(=O)[C@@H]2[C@H](/C=C(\Cl)C(F)(F)F)C2(C)C)c(F)c1F` (racemic) [Tefluthrin], the “FXR agonist mode EC50” value at human FXR [1] (Table S1, primary screening) is listed as “Inactive”. For the same compound, in data set [2] (Table S1, primary screening), the “Cytotoxicity IC50” value was “Inactive”. Also, on human FXR [3], the “FXR antagonist mode Efficacy” value amounted to 46 ± 7. For the same compound, the IC50 on human FXR [3] (FXR antagonist mode IC50) was 12.4 ± 2.01 µM.
For the compound `C[C@]12CC[C@@H]3c4ccc(O)cc4CC[C@H]3[C@@H]1CC[C@H]2O` [17α-Estradiol], in data set [2] (Table S1, primary screening), the “Cytotoxicity IC50” value was “Inactive”.
Still for that read-out and setting: for `C[C@]12CC[C@@H]3c4ccc(O)cc4CC[C@H]3[C@@H]1CC[C@@H]2O` [17β-Estradiol] the value was “Inactive”.
As for `Cc1c2oc3c(C)ccc(C(=O)N[C@@H]4C(=O)N[C@H](C(C)C)C(=O)N5CCC[C@H]5C(=O)N(C)CC(=O)N(C)[C@@H](C(C)C)C(=O)O[C@@H]4C)c3nc-2c(C(=O)N[C@@H]2C(=O)N[C@H](C(C)C)C(=O)N3CCC[C@H]3C(=O)N(C)CC(=O)N(C)[C@@H](C(C)C)C(=O)O[C@@H]2C)c(N)c1=O` [Actinomycin D] (I: T[dV]P[Sar][NMeV] / II: T[dV]P[Sar][NMeV]; ester I:1-I:C, II:1-II:C; linker I:N-II:N via Actinocin(9to1)), the “Cell viability IC50” value in data set [2] is listed as “Inactive”.
On to `CCC[S+]([O-])c1ccc2[nH]c(NC(=O)OC)nc2c1` (stereo not drawn) [Albendazole oxide], for which the “FXR agonist mode EC50” value on human FXR [1] (Table S1, primary screening) is “Inactive”. The “Cytotoxicity IC50” value in data set [2] (Table S1, primary screening) was “Inactive”. Moreover, the “FXR antagonist mode Efficacy” value at human FXR [3] worked out at 35 ± 16%. Half-maximal inhibition against human FXR [3] (FXR antagonist mode IC50) (IC50) was put at 27.9 ± 5.02 µM.
For the compound `O=c1cc(-c2ccc(O)cc2)oc2cc(O)cc(O)c12` [Apigenin], in data set [2] (Table S1, primary screening), the “Cytotoxicity IC50” value is listed as “Inactive”.
Take `CCOC(=O)[C@H](CCc1ccccc1)N[C@H]1CCc2ccccc2N(CC(=O)O)C1=O` [Benazepril]: the “Cytotoxicity Efficacy” value in data set [2] (Table S3) turned out to be 87 ± 27%.
Turning to `COC(=O)C1=C(C)NC(C)=C(C(=O)OC2CCCN(Cc3ccccc3)C2)C1c1cccc([N+](=O)[O-])c1` (stereo not drawn) [Benidipine], the “FXR agonist activity” value at human FXR [1] is “weak FXR agonist activity”. In addition, the “FXR agonist mode EC50” value at human FXR [1] (Table S1, primary screening) is “Inactive”. In addition, in data set [2] (Table S1, primary screening), the “Cytotoxicity IC50” value is given as “Inactive”. On human FXR [3] (setting [4]), the midpoint of inhibition, the IC50, lay at 24.8 µM. Besides, the “FXR antagonist mode Efficacy” value on human FXR [3] (setting [5]) was determined as 84 ± 17%. In addition, the “FXR antagonist Efficacy” value at human FXR [3] (Table S3, 50 µM CDCA) was determined as 84 ± 17%.
Consider `CCCCNC(=O)n1c(NC(=O)OC)nc2ccccc21` [Benomyl], for which, at human FXR [1] (Table S1, primary screening), the “FXR agonist mode EC50” value is “Inactive”. Besides, in data set [2] (Table S1, primary screening), the “Cytotoxicity IC50” value is “Inactive”. Also, on human FXR [3], the “FXR antagonist mode Efficacy” value is given as 21 ± 18%. Besides, on human FXR [3] (setting [4]), the IC50 was determined as 18.3 µM.
As to `C[C@H](CCC(=O)O)[C@H]1CC[C@H]2[C@@H]3[C@H](O)C[C@@H]4C[C@H](O)CC[C@]4(C)[C@H]3CC[C@]12C` [CDCA, Chenodeoxycholic acid], the “Cytotoxicity Efficacy” value in data set [2] (Table S1, primary screening) was 50 ± 1%.
As for `COCCOC(=O)C1=C(C)NC(C)=C(C(=O)OC/C=C/c2ccccc2)C1c1cccc([N+](=O)[O-])c1` (stereo not drawn) [Cilnidipine], at human FXR [1], a half-maximal response (EC50) required 8.08 ± 3.4 µM, the “FXR agonist activity” value is “FXR agonists” and the “FXR agonist Efficacy” value came to 64 ± 7%. For the same compound, on human FXR [1] (Table S1, primary screening, CDCA 100%), the “FXR agonist mode Efficacy” value is 64 ± 7%. Moreover, the “Cytotoxicity IC50” value in data set [2] (Table S1, primary screening) was “Inactive”. At human FXR [3], this compound yielded an IC50 of 31.1 ± 2.1 µM. Moreover, the “FXR antagonist mode Efficacy” value on human FXR [3] (setting [5]) was 64 ± 12%. The “FXR antagonist Efficacy” value on human FXR [3] (Table S3, 50 µM CDCA) was determined as 64 ± 12%.
Take `O=C(Nc1ccccc1)c1ccccc1SSc1ccccc1C(=O)Nc1ccccc1` [DTBBA, 2,2-Dithiobisbenzanilide]: the “FXR agonist mode Efficacy” value at human FXR [1] is reported as 31 ± 13. Further, the EC50 at human FXR [1] (read-out: FXR agonist mode EC50, Table S1, primary screening) was 24.6 ± 15.3 µM. Besides, on human FXR [3], the “FXR antagonist mode Efficacy” value was 51 ± 17. Also, the concentration for half-maximal inhibition (IC50) on human FXR [3] (read-out: FXR antagonist mode IC50) is 18 ± 8.46 µM.
Turning to `CC(=O)O[C@@]12CO[C@@H]1C[C@H](O)[C@@]1(C)C(=O)[C@H](O)C3=C(C)[C@@H](OC(=O)[C@H](O)[C@@H](NC(=O)OC(C)(C)C)c4ccccc4)C[C@@](O)([C@@H](OC(=O)c4ccccc4)[C@H]21)C3(C)C` [Docetaxel], the “FXR agonist mode EC50” value on human FXR [1] (Table S1, primary screening) is on record as “Inactive”. Besides, the “Cytotoxicity IC50” value in data set [2] (Table S1, primary screening) was “Inactive”. For the same compound, the IC50 against human FXR [3] was 0.008 ± 0.005 µM. Also, the “FXR antagonist activity” value on human FXR [3] (CDCA-induced) was “antagonistic effects”. Further, the “FXR antagonist mode Efficacy” value on human FXR [3] (setting [5]) was found to be 35 ± 4%.
For `CO[C@H]1C[C@H](O[C@H]2[C@H](C)O[C@@H](O[C@@H]3/C(C)=C/C[C@@H]4C[C@@H](C[C@]5(C=C[C@H](C)[C@@H](C6CCCCC6)O5)O4)OC(=O)[C@@H]4C=C(C)[C@@H](O)[C@H]5OC/C(=C\C=C\[C@@H]3C)[C@]54O)C[C@@H]2OC)O[C@@H](C)[C@@H]1O` [Doramectin], at human FXR [1], the “FXR agonist mode Efficacy” value is recorded as 62 ± 9% and the “FXR agonist Efficacy” value is 62 ± 9%. The “Cytotoxicity Efficacy” value in data set [2] (Table S1, primary screening) was 116 ± 6%. The “Cytotoxicity Efficacy” value in data set [2] (Table S3) came to 116 ± 6%. Besides, the IC50 in data set [2] (read-out: Cytotoxicity IC50, Table S1, primary screening) is 11 µM. Moreover, on human FXR [3], the “FXR antagonist Efficacy” value is 152 ± 10% and the “FXR antagonist mode Efficacy” value amounted to 152 ± 10%.
On to `COc1cccc2c1C(=O)c1c(O)c3c(c(O)c1C2=O)C[C@@](O)(C(=O)CO)C[C@@H]3O[C@H]1C[C@H](N)[C@@H](O)[C@H](C)O1` [Epirubicin], for which the “Cell viability IC50” value in data set [2] (Table 1, mean ± SD of 3 experiments) is “Inactive”.
